This note sets out measurements from patent publication US5741790A, “Azetidines” (Pfizer Inc., priority 1996, dated 1998).

In one assay the target is T1, NK2 receptor (Oryctolagus cuniculus, UniProt P79218).
T1 construct: in the rabbit pulmonary artery; from tissue; host or cells: rabbit pulmonary artery
T1 sequence (P79218 1-384): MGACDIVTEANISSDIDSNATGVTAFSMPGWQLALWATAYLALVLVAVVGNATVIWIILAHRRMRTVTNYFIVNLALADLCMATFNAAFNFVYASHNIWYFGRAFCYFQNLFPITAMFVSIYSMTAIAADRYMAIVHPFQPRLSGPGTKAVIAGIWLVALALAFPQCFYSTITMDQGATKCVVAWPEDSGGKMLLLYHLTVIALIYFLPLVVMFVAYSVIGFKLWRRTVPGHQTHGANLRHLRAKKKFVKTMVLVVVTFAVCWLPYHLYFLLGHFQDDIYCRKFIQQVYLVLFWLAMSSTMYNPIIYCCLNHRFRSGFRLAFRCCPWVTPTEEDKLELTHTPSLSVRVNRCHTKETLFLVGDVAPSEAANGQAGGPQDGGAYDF
Kind of assay: NK2 receptor antagonist activity in vitro: antagonism of contractile effects of [βAla8]NKA(4-10) in rabbit pulmonary artery (Patacchini and Maggi). The assay is classed as biochemical. The following applies: agonist [βAla8]NKA(4-10), read-out: pA2, NK2 receptor antagonist activity (converted). From the text:
The NK2 receptor antagonist activity of the compounds of the formula (I) can be tested, in vitro, by testing their ability to antagonise the contractile effects of the selective NK2 receptor agonist [βAla^8 ]NKA(4-10) in the rabbit pulmonary artery, using the method of Patacchini and Maggi, Eur. J. Pharmacol., 236, 31-37 (1993).

The target of another assay is T2, human NK2 receptor (Homo sapiens, UniProt P21452).
T2 construct: expressed in transfected cells; host or cells: Chinese hamster ovary (CHO) cells, membranes
T2 sequence (P21452 1-398): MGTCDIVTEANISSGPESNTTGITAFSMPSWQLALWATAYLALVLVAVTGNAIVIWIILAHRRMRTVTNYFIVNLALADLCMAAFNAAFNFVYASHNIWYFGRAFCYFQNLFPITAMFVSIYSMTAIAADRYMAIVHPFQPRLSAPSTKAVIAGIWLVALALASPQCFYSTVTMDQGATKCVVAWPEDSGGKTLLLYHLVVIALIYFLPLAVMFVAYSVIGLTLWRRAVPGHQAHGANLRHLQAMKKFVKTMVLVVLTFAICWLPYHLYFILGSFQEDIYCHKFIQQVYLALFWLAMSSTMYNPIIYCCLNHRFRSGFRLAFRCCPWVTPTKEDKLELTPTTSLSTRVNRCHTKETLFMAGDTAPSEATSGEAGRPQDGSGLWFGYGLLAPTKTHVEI
Briefly: NK2 receptor binding: competition with [3H] or [125I]NKA for binding to CHO cell membranes expressing cloned human NK2 receptor. The following applies: membranes of Chinese hamster ovary cells expressing cloned human NK2 receptor, 90 min, 25° C., read-out: plC50, NK2 receptor binding activity (converted). As for the experimental part: The affinity of the compounds of formula (I) and their salts for the human NK2 receptor can be tested in vitro by testing their ability to compete with [^3 H] or […] (neurokinin A) for binding to membranes prepared from Chinese hamster ovary cells expressing the cloned human NK2 receptor. In this method, washed Chinese hamster ovary cell membranes are prepared as described for the previous method where IM9 cells are used instead. The membranes are incubated (90 min, 25° C.) with [^3 H] or [^125 I] NKA and with a range of concentrations of the test compound. Non-specific binding was determined in the presence of 10μM NKA.

Take `NS(=O)(=O)N1CCN(C2CN(CC[C@]3(c4ccc(Cl)c(Cl)c4)CCC(=O)N(CC4CCCCC4)C3=O)C2)CC1` [Example 3, 3(S)-3-(2-(3-(4-Aminosulphonylpiperazin-1-yl)azetidin-1-yl)ethyl)-1-cyclohexylmethyl-3-(3,4-dichlorophenyl)glutarimide]: on NK2 receptor, the Kb was 7.94 nM. Besides, the IC50 on human NK2 receptor is 0.501 nM.
